Literature values, collected in patent US20250090695A1, “IMMUNOSTIMULANT-CYTOTOXIC CONJUGATE COMPOSITION AND METHODS FOR CANCER TREATMENT” (The Research Foundation for the State University of New York, priority 2022, published 2025).

Legend:
[1] = metastatic setting; cited from earlier work
[2] = patients; versus 11.2 months with placebo; cited from earlier work

CNC(=O)c1ccc(N2C(=S)N(c3ccc(C#N)c(C(F)(F)F)c3)C(=O)C2(C)C)cc1F [enzalutamide]
Overall survival extension [1]: 4-5 months

Radium-223
Overall survival [2]: 14 months
